Structures can show the parent of a compound that is named as a salt.

The nature of data set [1]: tests with mice: intake of food. In kind it is in vivo. To be noted: in tests with mice.

For `c1cc2c(cc1-c1ccc(N3CCN(C4CC4)CC3)nn1)OCO2` [Example 1, 3-(1,3-Benzodioxol-5-yl)-6-(4-cyclopropylpiperazin-1-yl)pyridazine dihydrochloride], the mutagenic activity entry in “mutagenic activity test” is listed as “No mutagenic activity”. Further, the “effect on the intake of food” value in data set [1] was “reducing effect on the intake of food”.
